Measurements published in patent US9290427B2, “Anti-invasive compounds” (Universiteit Gent, priority 2012, dated 2016).

Assays:
MCF-7/LucF5 cells = experiment: MTT test, MCF-7/LucF5; type: cell-based, human
Method: (§1) An MTT test provides an indication of cell viability, proliferation and activity through determination of the mitochondrial conversion of 3-(4,5-dimethylthiazol-2-yl)-2,5-diphenyltetrazolium bromide (MTT), a yellow salt, into formazan, a salt that precipitates under the form of blue crystals.
(§2) In concreto, 5,000 cells are seeded in a cup of a 96 well-plate, treated with the desired amount of the test substance, and incubated for a chosen period of time. Next, 40 μL of a filtered (0.2 μm) 5 mg·mL^−1 solution of MTT in PBS is added to the cup. After 2 h of incubation at 37° C. in the dark, all liquid is removed. The obtained formazan salts are dissolved in 200 μL of DMSO, whereupon optical density is measured at 490 nm.
In order to further validate the use of the MCF-7/LucF5 cells in our in vivo experiments, the effects of 4-fluoro-3′,4′,5′-trimethoxychalcone on this cell line in the MTT and SRB assays were determined as well (Van Hoorde L. et al., 1999).

BLM melanoma cells [1] = experiment: MTT test, BLM; type: cell-based
Method: as §1, §2
(§3) As 4-fluoro-3′,4′,5′-trimethoxychalcone had exerted an anti-invasive activity on BLM melanoma cells in the Matrigel invasion assay, we were intrigued to verify how its effect on the viability of BLM cells would compare to that observed for the MCF-7 cell lines.

BLM melanoma cells [2] = experiment: SRB test, BLM; type: cell-based
Method: (§4) The SRB assay is used to evaluate growth effects on cells, and measures the total protein content. In this test, 5,000 cells are seeded in a cup of a 96-well plate. Upon a 24 h-attachment period, cells are treated with a certain amount of the test molecule (dissolved in DMSO). After a pre-chosen incubation time, cells are fixed with 50 μL of 50% trichloroacetic acid (2° C., 1 h). Afterward, the plate is rinsed five times with tap water, and air dried overnight.
(§5) Next, proteins are stained with 75 μL of a 0.4% solution of SRB in AcOH (30 min). Unbound SRB is subsequently removed by washing with a 1% solution of glacial AcOH, whereupon the plate is air dried. Then, bound SRB is redissolved in 100 μL of a 10 mmol·L^−1 tris(hydroxymethyl)aminomethane (Tris) buffer (pH=10.5), after which optical density is determined at 490 nm with a spectrophotometer.
as §3

[3] = test system: HCT8-E11 colon carcinoma cells; experiment: SRB test, HCT8-E11; type: cell-based, human
Method: as §4, §5
(§6) In order to verify whether the antiproliferative effects of compound 49, witnessed in BLM and MCF-7/6 cells at high concentrations, were cell specific, additional SRB and MTT assays on a further five cell lines (HCT8-E11, TR146, FaDu, 3T3-L1 and CT5.3) were conducted (FIG. 8). The results for MCF-7/6 cells were added to facilitate comparison.
(§7) The CT5.3 cell line consists of human myofibroblasts which were isolated from a colon tumor (Van Hoorde et al., 1999). […]

TR146 cells = experiment: SRB test, TR146; type: cell-based, human; conditions: 1 or 10 μmol·L−1, 24 h
Method: as §4, §5, §6, §7

FaDu cells [4] = experiment: MTT test, FaDu; type: cell-based, human
Method: as §1, §2, §6
(§8) The CT5.3 cell line consists of human myofibroblasts which were isolated from a colon tumor (Van Hoorde et al., 1999). 3T3-L1 cells are murine fibroblasts, originating from embryo's of Swiss mice (Todaro and Green, 1963). HCT8-E11, FaDu and TR146 are human epithelial cancer cell lines. […]

FaDu cells [5] = experiment: SRB test, FaDu; type: cell-based, human; conditions: 1 or 10 μmol·L−1, 24 h
Method: as §4, §5, §6, §7

3T3-L1 cells = experiment: MTT test, 3T3-L1; type: cell-based, murine; conditions: 10 μmol·L−1, 24 h
Method: as §1, §2, §6, §8

CT5.3 myofibroblasts = experiment: MTT test, CT5.3; type: cell-based, human; conditions: 10 μmol·L−1, 24 h
Method: as §1, §2, §6, §8

[6] = elevated concentrations 10-100 μmol·L−1, summary

## COc1cc(C(=O)/C=C/c2ccc(F)cc2)cc(OC)c1OC [Compound 49, (2E)-3-(4-Fluorophenyl)-1-(3,4,5-trimethoxyphenyl)propenone]
MCF-7/LucF5 cells; 0.1 μmol·L−1, 72 h (p=0.0196)
  mitochondrial activity: significant reduction
MCF-7/LucF5 cells; 0.1 μmol·L−1, 144 h
  viability (mitochondrial activity): restoration of viability to the control level
MCF-7/LucF5 cells; 100 and 10 μmol·L−1, 72 and 144 h
  mitochondrial activity: significant reduction
MCF-7/LucF5 cells; [6]
  reduction in mitochondrial activity: ~50%
BLM melanoma cells [1]; 0.1 μmol·L−1, 24 h
  reduction of BLM cell viability (mitochondrial activity): 22%
BLM melanoma cells [1]; 1 μmol·L−1, 24 h
  reduction of BLM cell viability (mitochondrial activity): 27%
BLM melanoma cells [1]; 10 μmol·L−1, 24 h
  reduction in mitochondrial activity: 40%
BLM melanoma cells [1]; 100 μmol·L−1, 24 h
  reduction of BLM cell viability (mitochondrial activity): 76%
BLM melanoma cells [2]; 0.1 μmol·L−1, 24 h
  reduction in total protein content: no effect was apparent
BLM melanoma cells [2]; 10 μmol·L−1, 24 h, significant reduction
  change in total protein content: −20%
BLM melanoma cells [2]; 1 and 10 μmol·L−1, 24 h (p<0.01)
  reduction in total protein content: 20%
[3]; 10 μmol·L−1, 24 h, decreasing trend, not significant
  change in total protein content: −27%
[3]; [6]
  reduction in total protein content: ~50%
TR146 cells
  total protein content versus solvent control: no significant differences
FaDu cells [4]; 1 μmol·L−1, 24 h
  mitochondrial activity: the same trend, but without significance
FaDu cells [4]; 10 μmol·L−1, 24 h
  reduction in mitochondrial activity: 30%
FaDu cells [5]
  total protein content versus solvent control: no significant differences
3T3-L1 cells
  reduction in mitochondrial activity: 30%
CT5.3 myofibroblasts
  decrease in mitochondrial activity: 22%
